Values of other authors in patent publication US5502037A, “Pro-cytotoxic drug conjugates for anticancer therapy” (priority 1993, dated 1996).
Where two headings read alike, the source gives them in different places.

Tests used:
[1] = tested on: mouse Yoshida ascites sarcoma cells; conditions: for In vitro activities: Cytotoxicity: cu = cytostatic units, Yoshida ascites sarcoma cells, Brock, 1976
[2] = tested on: Yoshida ascites sarcoma
[3] = NBP test, relative to NNM; taken from Brock, 1976
[4] = tested on: tumor cells; conditions: for activity as the result of in vivo metabolism: once activated / metabolized

| Structure (SMILES) | In vitro activities: Cytotoxicity [1] | In vivo activities: LD50 ([2]; lethal dose, rat, Brock, 1976) | D50 Index (LD50/CD50) ([2]; rat, in vivo) | In vivo activities: CD50 ([2]; rat, in vivo) | In vitro activities: Alkylating [3] | activity as the result of in vivo metabolism [4] | activity in the in vitro Yoshida cell cytotoxicity test (in words) ([1]; comment on Table II) | biologic activity in vitro and in vivo before metabolism ([4]; initially, in vitro and in vivo) | activity in vivo against the rat Yoshida ascites sarcoma (in words) ([2]; comment on Table II) | In vivo activities: CD50 ([2]; curative dose, Yoshida ascites sarcoma in rat, Brock, 1976) | In vivo activities: LD50 ([2]; rat, in vivo) |
| --- | --- | --- | --- | --- | --- | --- | --- | --- | --- | --- | --- |
| C=CC=O [Acrolein, acrolein] | 0.4 CU/μmol | 7.3 mg/kg | ~ 3 | > 2.15 mg/kg | 1.9% |  |  |  |  |  |  |
| O=P1(NCCCl)OCCCN1CCCl (stereo not drawn) [isophosphamide] |  |  |  |  |  | highly cytotoxic in vivo to tumor cells once activated |  |  |  |  |  |
| O=P1(N(CCCl)CCCl)NCCCO1 (stereo not drawn) [CP, cyclophosphamide] | < 0.03 CU/μmol |  | 175 |  | 1.3% | highly cancerotoxic | virtually inactive | only slight biologic activity | highly active therapeutic agent | 1.25 mg/kg | 220 mg/kg |
